Activity calls are given as the source filed them. No cut-off for these calls is given here.
How the values were obtained:
[1] = molecular target: T1, Bifunctional epoxide hydrolase 2 (Homo sapiens, UniProt P34913)
T1 sequence (P34913 whole entry): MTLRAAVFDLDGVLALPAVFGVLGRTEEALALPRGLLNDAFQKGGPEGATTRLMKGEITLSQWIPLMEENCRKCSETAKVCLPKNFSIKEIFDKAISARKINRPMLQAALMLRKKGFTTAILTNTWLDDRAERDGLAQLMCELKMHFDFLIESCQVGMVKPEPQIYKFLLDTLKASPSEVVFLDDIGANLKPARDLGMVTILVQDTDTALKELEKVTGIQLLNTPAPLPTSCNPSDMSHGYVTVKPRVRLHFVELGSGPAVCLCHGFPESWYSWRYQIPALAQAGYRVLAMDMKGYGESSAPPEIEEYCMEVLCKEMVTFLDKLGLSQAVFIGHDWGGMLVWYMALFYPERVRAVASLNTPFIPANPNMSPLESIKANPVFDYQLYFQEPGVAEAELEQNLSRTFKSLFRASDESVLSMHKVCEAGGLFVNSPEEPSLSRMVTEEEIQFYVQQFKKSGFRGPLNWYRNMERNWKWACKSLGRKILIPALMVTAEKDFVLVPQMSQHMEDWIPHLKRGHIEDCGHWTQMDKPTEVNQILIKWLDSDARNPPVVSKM

Mus musculus [2] = assay: Protection against LPS-induced sepsis in C57BL/6J mouse model assessed as survival rate at 5 mg/kg, iv measured after 72 hrs relative to control; format: functional
Mus musculus [3] = assay: Protection against LPS-induced sepsis in C57BL/6J mouse model assessed as survival rate at 0.05 mg/kg, iv measured after 48 hrs relative to control; format: functional
[4] = Cytotoxicity in HEK293T cells assessed as cell viability at 50 uM incubated for 48 hrs by CCK8 assay relative to control; format: toxicity, cell-based, HEK-293T; conditions: human, read-out: Activity
Mus musculus [5] = assay: Protection against LPS-induced sepsis in C57BL/6J mouse model at 0.05 mg/kg, iv measured after 72 hrs; format: functional, organism-based
Mus musculus [6] = assay: Anti-inflammatory activity in LPS-induced C57BL/6J mouse model of sepsis assessed as TNF-alpha in liver at 5 mg/kg, ip preadministered with compound for 24 hrs followed by LPS administration and measured after 3 hrs by ELISA (reference value: 298 pg/ml); format: functional; conditions: time 27 hrs
[7] = Tmax in Sprague-Dawley rat at 20 mg/kg, po measured after 24 hrs; format: ADME, organism-based; conditions: in vivo
Mus musculus [8] = assay: Protection against LPS-induced sepsis in C57BL/6J mouse model assessed as survival rate at 0.5 mg/kg, iv measured after 72 hrs relative to control; format: functional
[9] = Cytotoxicity against human HepG2 cells assessed as cell viability at 50 uM incubated for 48 hrs by CCK8 assay relative to control; format: toxicity, cell-based; conditions: read-out: Activity
[10] = Tmax in Sprague-Dawley rat at 5 mg/kg, iv measured after 24 hrs; format: ADME, organism-based; conditions: in vivo
[11] = AUC (0 to 24 hrs) in Sprague-Dawley rat at 20 mg/kg, po measured after 24 hrs; format: ADME, organism-based; conditions: in vivo
Mus musculus [12] = assay: Protection against LPS-induced sepsis in C57BL/6J mouse model assessed as survival rate at 0.05 mg/kg, iv measured after 72 hrs relative to control; format: functional
Mus musculus [13] = assay: Protection against LPS-induced sepsis in C57BL/6J mouse model assessed as survival rate at 30 mg/kg, iv measured after 72 hrs relative to control; format: functional

**Q.** Which IC50 [1] does the source give for `O=C(Cc1ccccn1)Nc1cccc(/C=C/c2ccc(NC(=O)NCC3CCOCC3)cc2)c1` here?
**A.** 1.52 nM

**Q.** What about the survival at 5 mg/kg (Mus musculus [2]) of the same molecule?
**A.** 40%

**Q.** What about the survival at 0.05 mg/kg (Mus musculus [3]) of the same molecule?
**A.** 10%

**Q.** What about the viability at 48 h, 50 µM [4] of the same molecule?
**A.** 46.6%

**Q.** And the Activity (Mus musculus [5])?
**A.** inactive

**Q.** What about the Activity (Mus musculus [6]) of the same molecule?
**A.** 193 pg/mL

**Q.** And the Tmax [7]?
**A.** 30 min

**Q.** What about the survival at 0.5 mg/kg (Mus musculus [8]) of the same molecule?
**A.** 40%

**Q.** What about the viability at 48 h, 50 µM [9] of the same molecule?
**A.** 46.5%

**Q.** What about the Tmax [10] of the same molecule?
**A.** 4.8 min

**Q.** And the AUC [11]?
**A.** 0.048 µg·h/mL

**Q.** What about the survival at 0.05 mg/kg (Mus musculus [12]) of the same molecule?
**A.** 10%

**Q.** What about the survival at 30 mg/kg (Mus musculus [13]) of the same molecule?
**A.** 10%

From ChEMBL document CHEMBL5543072, “Discovery of a novel lead characterized by a stilbene-extended scaffold against sepsis as soluble epoxide hydrolase inhibitors” (Eur J Med Chem, 2024)
